Test results: patent US10077284B2, “UBA5 inhibitors” (THE GOVERNING COUNCIL OF THE UNIVERSITY OF TORONTO, priority 2014, dated 2018)

How the values were obtained:
UBA5 = UBA5 (Homo sapiens, UniProt Q9GZZ9); settings: in the presence of 1.5.Zn (5 μM)
Description: Initial rates were recorded over 30 second time intervals from 0 to 2.5 min (normal kinetics) or 0 to 5 min (inhibition kinetics). Reactions were initiated by the addition of ATP and stopped using 4× Laemmli sample buffer (BioRad). The generated protein conjugates were separated on a 10% […] SDS-polyacrylamide gel (4-15% gels were used for the UAE transthiolaton assay), followed by Western blot analysis, with the exception of GST-UBA5 where protein bands were detected using Coomassie™ Brilliant Blue R-250 staining or Stain-Free gel imaging for the enzymatic assays (Bio-Rad). Transfers for the UAE and NAE immunoblots were performed using nitrocellulose membranes and blocking and blotting was performed as described above with cellular protein extracts. The His6-tagged Ub-UBCH6 complex was detected using an anti-His mouse monoclonal primary antibody (1:500, abcam). A rabbit anti-NEDD8 polyclonal primary antibody (1:500, BostonBiochem) was used for the detection of the E2-NEDD8 complexes. […] Inhibitory data was fit to a dose-response curve (Y=Bottom+(Top−Bottom)/(1+10^(X-Log IC50))) using GraphPad Prism 6.
Concentrations of UBA5 (1 μM), UFM1 (10 μM), and UFC1 (10 μM) were held constant, while the concentration of ATP was varied from 0 to 1 mM. […] Protein concentrations were held constant as in (A), and concentrations of ATP were varied from 0 to 1 mM (n=3). […]

[1] = tested on: UFM1 conjugation in K562 cells; settings: K562, increasing concentrations, 72 h
Description: (§1) Cells were washed twice with cold PBS and protein extracts were prepared using RIPA buffer with a protease and phosphatase inhibitor cocktail (Roche #11836153001, #04906845001). Protein concentrations were determined using the BCA protein quantification technique (BCA Protein assay kit, Pierce). In each assay, 30 μg of whole cell protein extract was resolved on a 10% SDS-polyacrylamide gel and transferred to a PVDF membrane (Bio-Rad). The membranes were blocked with SuperBlock (Thermo scientific; No. 37515) for at least 1 hr followed by an overnight incubation in primary antibody. Blots were probed with antibodies against UBA5 (abcam; ab109227) and UFM-1 (abcam; ab09305) in a 1:1000 dilution, and anti-β-actin (1:5000 dilution; Cell Signaling, 3700S) was used as a loading control. […] The bands were visualized and analyzed using Image lab software (Bio-Rad).
(§2) The intracellular inhibition of UBA5 was evaluated in order to investigate its use as a molecular tool to study cellular UFMylation by UBA5 inactivation. […] The graphical representation of the intracellular inhibition of UFM1 protein conjugation (evaluated using Western Blot analysis, described in detail within the Materials and Methods submitted in May 2014) is shown in FIG. 26. […]

[2] = tested on: UFM1 conjugation in Sk-Luci6 cells; settings: Sk-Luci6, increasing concentrations, 72 h
Description: as §1, §2

[3] = tested on: Sk-Luci6, A549 and MRC-9 cells; settings: all treated cells
Description: Confluence of live cells was estimated visually under phase contrast microscopy.
Sk-Luci6, A549 and MRC-9 were each plated as 5×10^3 cells per well and grown in 10% serum on a 96 well plate. […] Cell numbers were obtained at 24 hr time points over a period of 72 hrs using trypan blue exclusion assay (BioRad; #145-0021) and counted using a hemocytometer.

Chain of UBA5 (Q9GZZ9 whole entry): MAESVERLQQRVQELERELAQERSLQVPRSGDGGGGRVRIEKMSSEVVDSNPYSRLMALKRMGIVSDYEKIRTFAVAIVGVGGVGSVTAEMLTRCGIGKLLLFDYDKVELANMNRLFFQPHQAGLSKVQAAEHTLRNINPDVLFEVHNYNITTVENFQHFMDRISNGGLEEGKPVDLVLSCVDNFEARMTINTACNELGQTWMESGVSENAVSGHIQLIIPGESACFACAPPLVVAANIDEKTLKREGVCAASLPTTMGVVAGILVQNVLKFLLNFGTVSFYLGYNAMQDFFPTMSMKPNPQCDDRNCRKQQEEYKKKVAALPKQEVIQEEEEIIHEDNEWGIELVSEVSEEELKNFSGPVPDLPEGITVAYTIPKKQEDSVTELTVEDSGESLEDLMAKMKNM

SMILES: Nc1ncnc2c1ncn2[C@@H]1O[C@H](C(=O)NCCCCCC(=O)N2CCNCCNCCNCC2)[C@@H](O)[C@H]1O.O=S(=O)([O-])C(F)(F)F.O=S(=O)([O-])C(F)(F)F.[Zn+2] [Compound 1.5.Zn, (2S,3S,4R,5R)—N-(6-(1,4,7,10-tetraazacyclododecan-1-yl)-6-oxohexyl)-5-(6-amino-9H-purin-9-yl)-3,4-dihydroxytetrahydrofuran-2-carboxamide zinc trifluoromethanesulfonate]
- VMAX (UBA5): 0.988 ± 0.137 pmol/min
- kCAT (UBA5): 0.00188 ± 0.000267 s⁻¹
- UFMylation levels [1]: Decreased UFMylation levels
- UFMylation levels [2]: Decreased UFMylation levels
- cell death [3]: no cell death
